In patent US12527760B2, “Synthesis of pro-resolving analogs and compositions therefor” (Nocendra Inc., priority 2019, dated 2026):

Legend:
[1] = stability of the methyl ester in the oral rinse formulation over the course of the study; assay type: physicochemical; conditions: neutral pH (7 or less)
Source text: (§1) The pH of this solution was 7 or less.
Without wishing to be bound by theory, it is believed that […] the pH of the oral rinse formulation increases the stability of the methyl ester forms of these benzo-lipoxin analogs and mimetics, therefore allowing for more efficient delivery of the active compounds (e.g., Compound (Vb), etc.) in these formulations.

[2] = tested on: eicosanoid oxido-reductase; conditions: in comparison with native lipoxin A4; cited from earlier work
[3] = tested on: polymorphonuclear neutrophil infiltration; conditions: murine peritonitis model, compared with the vehicle control; cited from earlier work
[4] = tested on: subjects with gingivitis; assay: randomized, placebo-controlled, double-blind clinical study of Compound (Vb) oral rinse in gingivitis; assay type: in vivo, humans
Protocol: A clinical study comprised of 3 groups in a randomized, placebo-controlled, double-blind design with an additional group that received no treatment was performed to evaluate the use of Compound (Vb) on the treatment of gingivitis. Subjects were healthy adults, aged 18 through 65 years, with gingivitis as defined by […] (MGI)≥2.0. The treatment group (Compound (Vb) oral rinse) and the placebo rinse group consisted of 50 subjects each. The no-rinse control group consisted of 27 subjects. These group sizes were planned to allow for a 20% dropout rate.
as §1
The Compound (Vb) oral rinse group received the active agent at a concentration of 1.0 μM in the oral rinse applied once daily (after morning teeth brushing) for 28 days. Thirty-two subjects reported a total of 56 treatment emergent adverse effects (TEAEs), with the greatest percentage of subjects reporting at least 1 TEAE in the Compound (Vb) group (38.0%) followed by the placebo group (20.0%) and the no-rinse control group (11.1%). Overall, 10 subjects reported at least 1 TEAE considered related to study drug, and 5 subjects reported at least one TEAE related to study procedures.
The primary outcome of this study was safety, and therefore, all efficacy analyses were considered secondary outcomes. The key secondary efficacy outcomes in this study were Modified Gingival Index (MGI) and BOP.

[5] = 1.0 μM oral rinse once daily for 28 days
[6] = oral TEAE possibly related to study drug

Which “stability of the methyl ester in the formulation” value [1] does the source give for `CCCCC[C@@H](O)/C=C/c1ccccc1/C=C/[C@@H](O)[C@@H](O)CCCC(=O)OC` [Compound (Vb), methyl (5S,6R,E)-5,6-dihydroxy-8-(2-((R,E)-3-hydroxyoct-1-en-1-yl)phenyl)oct-7-enoate] here?
The value was “increase in the free acid form”.

What about the “conversion to inactive forms” value [2] of the same molecule?
Its value is “not readily converted to inactive forms”.

And the “inhibition of polymorphonuclear neutrophil infiltration” value [3]?
Its value is “approximately 32%”.

What about the “overall safety and tolerability” value [4, 5] of the same molecule?
The value was “generally safe and well tolerated”.

What about the “percentage of subjects reporting at least 1 TEAE” value [4, 5] of the same molecule?
The value was 38.0%.

And the “subjects reporting oral TEAEs considered possibly related to study drug” value [4, 5]?
Its value is “Four”.

And the “subjects with study drug-related TEAEs” value [4, 5]?
Its value is 6 subjects.

And the “change in mean MGI” value ([4]; Day 14 and 28, relative to placebo)?
The value was “clinically important decrease”.

And the BOP ([4]; Day 28, versus placebo)?
Its BOP is “did not result in meaningful differences”.

What about the “extent of clinical gingivitis” value ([4]; compared with the placebo group) of the same molecule?
The value was “reduced the extent of clinical gingivitis”.

And the “TEAEs leading to study drug discontinuation” value ([4]; human, in vivo)?
Its value is “No TEAEs led to study drug discontinuation”.

And the “severity of oral TEAEs” value ([4]; human, in vivo, po)?
The value was “mild in severity”.

What about the “subjects reporting an oral disorder” value [4, 6] of the same molecule?
Its value is 1 subject.

What about the “subjects reporting dry mouth” value [4, 6] of the same molecule?
Its value is 3 subjects.

And the pocket depth reduction ([4]; sites with pockets >6 mm, ± SD)?
The pocket depth reduction was −1.23±0.406 mm.
